# Data published in US9103830B2, “Enzyme sensors, methods for preparing and using such sensors, and methods of detecting protease activity” (Georgia State University Research Foundation, Inc., priority 2006, dated 2015).
# Entries after “also recorded” stand apart in the source; their conditions may differ.
# Experiments:
# trypsin [1] = biological target: T1, trypsin (Bos taurus, UniProt P00760); assay: Steady-state kinetics of trypsin digestion of EGFP-based trypsin sensors and BAPNA (absorbance at 490 nm, Michaelis-Menten fit); type: biochemical, bovine; settings: Table 2; 10 mM Tris, 20 mM CaCl2, pH 7.4
# T1 construct: Active trypsin is produced only after trypsinogen reaches the small intestine through the common bile duct and is cleaved by enterokinase; purchased Sigma, St. Louis; host or cells: bovine pancreas
# T1 sequence (P00760 24-246): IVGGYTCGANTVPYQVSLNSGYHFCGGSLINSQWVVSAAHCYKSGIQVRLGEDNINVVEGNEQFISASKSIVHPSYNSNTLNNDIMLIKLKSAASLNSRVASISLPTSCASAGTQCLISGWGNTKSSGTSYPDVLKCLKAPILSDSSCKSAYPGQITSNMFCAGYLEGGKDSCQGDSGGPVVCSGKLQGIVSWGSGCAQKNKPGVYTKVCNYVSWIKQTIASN
# Experimental: Initial rates of trypsin digestion reaction for EGFP-T/C1 with various concentrations were measured using a time-course model to monitor the change of absorbance at 490 nm for 10 min on a UV-1700 spectrometer (Shimadzu, Japan), where the initial rate was equivalent to the resulting slope of absorbance increase.
# In order to investigate the kinetic change and to determine the steady-state kinetic parameters kcat, Km, and kcat/Km for hydrolysis of EGFP-based trypsin sensors upon the action of trypsin, initial rates were measured at various EGFP-based trypsin sensor concentrations. The change of absorbance was monitored at 490 nm for 10 min using UV-1700 spectrometer (Shimadzu, Japan) in time-course model and the slope of absorbance increase was determined as the initial rate data. The data were fitted to the Michaelis-Menten equation by nonlinear regression using KaleidaGraph 3.5 software (Synergy software) to obtain the Michaelis constants (Km), turnover numbers (kcat) and specificity constants (kcat/Km).
# In order to examine buffer pH effect on trypsin cleavage, kinetic parameters of our designed trypsin sensors were evaluated during trypsin digestion in PIPES buffer (20 mM PIPES, 20 mM CaCl2, pH 6.7) and Tris buffer (10 mM Tris, 20 mM CaCl2, pH 7.4 and pH 8.0), respectively. […]
# trypsin [2] = biological target: T1, trypsin; assay: Inhibition by leupeptin of trypsin digestion of EGFP-T/C1; type: biochemical, bovine
# Experimental: In order to examine inhibition effect of leupeptin (Sigma, St. Louis), a trypsin inhibitor, leupeptin at various concentrations (0, 12.5, 25, 50 and 100 nM) was mixed with EGFP-T/C1 and subsequently digested by trypsin at a final concentration of 0.005 μM. The kinetic studies of EGFP-T/C1 with various concentrations were performed at each inhibitor concentration level and the absorbance change at 490 nm was mintored using a time course model. The double reciprocal of initial rates and trypsin sensor concentrations was performed to obtain the plot for confirming inhibition type and calculation of Ki value.
# In order to ensure that our developed sensor is able to directly monitor the catalytic step of the enzymatic reaction, we then examined the inhibition effect of leupeptin on trypsin during the digestion of EGFP-T/C1 with various leupeptin concentrations. The rate of the signal change due to cleavage decreases with increasing leupeptin concentrations (FIG. 6A).
# [3] = tested on: caspase-3 activation in Hela cells; assay: Fluorescence imaging of Hela cells transfected with caspase-3 sensor, STS induction; type: cell-based, human
# Experimental: (§1) Hela cells were grown on glass coverslips (0.5-1.0×10^6 cells/dish) in 35 mm culture dishes in Dulbecco's Modified Eagles Medium (DMEM) (Sigma Chemical Co., St. Louis, Mo.) with 44 mM NaHCO3, pH 7.2, and supplemented with 10% (v/v) fetal calf serum (FCS), 100 U/ml penicillin and 0.1 mg/ml streptomycin (Pen/Strep) at 37° C. with 5% CO2 in a humidified incubation chamber. After the cells were seeded and grown overnight, the EGFP-based caspase-3 sensor plasmid was transfected into Hela cells with lipofectamine-2000 (Invitrogen Life Technologies) and serum-free Opti-MEM (Gibco Invitrogen Corporation) according to the manufacturer's instructions. […] The cells were then grown 24 to 48 hours in a humidified chamber with 5% CO2 at 30° C. before fluorescence microscope imaging. […]
# Hela cells with transfected EGFP-based caspase-3 sensor were imaged following its expression for 24 or 48 hours. […] Fluorescence imaging of Hela cells with EGFP-wt transfection was used as the control.
# The ratiometric change between fluorescence emission for excitation at 398 nm and 488 nm was used to detect caspase-3 activation and inhibition at different time intervals in living cells. Fluorescence for both excitation wavelengths is expected to decrease at 398 nm and produce a corresponding increase at 488 nm during the course of the reaction. The fluorescence intensity of the cells was normalized with equation 2: […]
# [4] = tested on: caspase-3 activation in MIA PaCa-2 cells; assay: Fluorescence imaging of MIA PaCa-2 cells transfected with caspase-3 sensor, STS induction; type: cell-based
# Excerpt: After induction, there was obvious increase in fluorescence of EGFP-EF172cas2 at 398 nm excitation and significant decrease in fluorescence at 488 nm excitation in real time, which results in an increased fluorescence ratio change between 398 and 488 nm, and a corresponding increase in sensitivity for determining the caspase-3 activity in living cells, and an increase in the dynamic range up to 4 for the caspase-3 activity determination. Although there was a slight increase and then decrease in fluorescence of EGFP-wt at both wavelengths after STS induction, the relative fluorescence ratio change was negligible. A possible reason for this would be a change in the cell shape to which increases the fluorescence slightly during the apoptosis. […] Apoptosis is observed in MIA PaCa-2 is a little earlier and stronger than in HeLa cells. There is a huge fluorescence change with excitation at 398 nm in MIA PaCa-2 cells transfected with EGFP-EF172cas2. The cause of this is reasoned to be due to intrinsic high-level caspase-3 activity in MIA PaCa-2 cells and its activity is enhanced by STS induction.
# trypsin [5] = biological target: T1, trypsin; assay: Cleavage status after trypsin digestion (SDS-PAGE, MALDI-MS); type: biochemical, bovine; settings: up to 40 hours
# Experimental: To examine the cleavage status of the protease sensors (EGFP-T/C1, and EGFP-wt) at different time points, 20 μl of reaction mixtures of 15 μM EGFP variants during trypsin digestion were removed and immediately added SDS sample buffer and boiled to stop the reaction for monitoring by SDS-PAGE at different digestion time intervals (0 min, 5 min, 10 min, 30 min, 60 min, 2 h, 6 h, and 24 h). The samples were loaded on 15% SDS-PAGE to examine the cleavage status of three EGFP variants.
# Similarly, after digestion with trypsin, the cleavage status was confirmed using matrix assisted laser desorption/ionization-mass spectrometry (MALDI-MS).
# In order to verify the cleavage status of EGFP-based trypsin sensors, the samples during trypsin digestion at various digestion time intervals were examined with 15% SDS-PAGE and MALDI mass spectrometry.
# [6] = tested on: trypsin activation in MIA PaCa-2 cells; assay: Fluorescence imaging of MIA PaCa-2 cells transfected with trypsin sensor, caerulein activation; type: cell-based; settings: zymogen activation by 10 nM caerulein
# Experimental: as §1, with “MIA PaCa-2” for “Hela”, “bovine” for “calf”, “(FBS),” for “(FCS),”, “EGFP-T/C1” for “the EGFP-based caspase-3 sensor plasmid”
# MIA PaCa-2 cells with transfected EGFP-T/C1 were imaged following trypsin sensor expression for 24 or 48 hours. […] The ratiometric change between fluorescence emission for excitation at 398 nm and 488 nm was used to detect trypsin activity at different time intervals in the living cells. Fluorescence for both excitation wavelengths is expected to decrease at 398 nm and produce a corresponding increase at 488 nm during the course of reaction. The fluorescence intensity of the cells was normalized with equation 2: […]
# The fluorescence ratiometric change (R) is expressed by equation 3: […]
compound,measurement,setting,value
"Cl.N=C(N)NCCCC(NC(=O)c1ccccc1)C(=O)Nc1ccc([N+](=O)[O-])cc1 (racemic) [BAPNA, benzoyl-DL-arginine-4-nitroanilide hydrochloride]",kcat,trypsin [1],1.33 ± 0.17 s⁻¹
CC(=O)N[C@@H](CC(C)C)C(=O)N[C@@H](CC(C)C)C(=O)N[C@H](C=O)CCCNC(=N)N [leupeptin],inhibition type,"trypsin [2]; double reciprocal plot, Enzfitter fit",competitive inhibition
same,Ki,"trypsin [2]; substrate EGFP-T/C1, 0.005 μM trypsin, 10 mM Tris, 20 mM CaCl2, pH 7.4",31.1 ± 2.3 nM
DEVD-CHO,ratio (R398/488) of fluorescence of caspase-3 sensor cells incubated with caspase-3 inhibitor,"[3]; Hela cells transfected with EGFP-cas3-1e, inhibitor overnight, then 1 μM STS",no change
"EGFP-wt: enhanced green fluorescent protein, Sequence ID. No. 119; used as the control",fluorescence ratio change,[4],maintains a gradient increase
same,cleavage status upon incubation with trypsin,trypsin [5],remains intact
same,ratio (R398/488) of fluorescence signal change,"[3]; Hela cells, 1 μM STS induction, emission 510 nm",no apparent ratiometric change; also recorded: negligible
same,"ratiometric emission change (510 nm emission, excitation 488/398 nm)",[6],remained unchanged
